Measurements from patent US20230085307A1, “PYRIDAZINONE COMPOUND AND HERBICIDE” (NISSAN CHEMICAL CORPORATION, priority 2019, published 2023).

How the values were obtained:
wild oat [1] = experiment: Test Example 5: herbicidal effect by foliage application, plastic box (Table 20, symbol I); assay type: in vivo, wild oat (Avena fatua); conditions: foliage application, 320 g/ha, three weeks after application
How it was run: (§1)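 Plants sown in sterilized diluvial soil and grown 14 days in a greenhouse at 25° C to 30° C, then sprayed on the foliage with the compound's emulsion diluted in water to a predetermined herbicide amount. Injury to weeds and crops scored three weeks after application on a visual rating scale.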

redroot pigweed [2] = experiment: Test Example 4: herbicidal effect by soil treatment (Table 19, symbol N); assay type: in vivo, redroot pigweed (Amaranthus retroflexus); conditions: amount of applied herbicide 320 g/ha
How it was run: (§2)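 Seeds were sown in sterilized diluvial soil and covered with about 1.5 cm of soil. An emulsion formulation diluted with water to a predetermined herbicide amount was sprayed evenly onto the soil surface. Plants grew in a greenhouse at 25° C. to 30° C., and the effect was scored three weeks after application using criteria from an earlier test.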

persian speedwell [3] = experiment: Test Example 5: herbicidal effect by foliage application, plastic box (Table 20, symbol R); assay type: in vivo, Persian speedwell (Veronica persica); conditions: foliage application, 320 g/ha, three weeks after application
How it was run: as §1

Japanese bulrush = experiment: Test Example 1: herbicidal activity, application before weed generation under submerged conditions (Table 16, symbol B); assay type: in vivo, Japanese bulrush (Schoenoplectus juncoides); conditions: 320 g/ha applied herbicide
How it was run: (§3)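 Submerged Wagner pots (alluvial soil, 4 cm water) sown with weed seeds and planted with 2.5-leaf rice seedlings; emulsifiable concentrate diluted in water applied to water surface on sowing day. Held in greenhouse at 25-30 °C; injury scored 0-5 by herbicidal rate after three weeks.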

southern crabgrass [4] = experiment: Test Example 5: herbicidal effect by foliage application, plastic box (Table 20, symbol F); assay type: in vivo, southern crabgrass (Digitaria ciliaris); conditions: foliage application, 320 g/ha, three weeks after application
How it was run: as §1

false cleavers [5] = experiment: Test Example 5: herbicidal effect by foliage application, plastic box (Table 20, symbol Q); assay type: in vivo, false cleavers (Galium spurium); conditions: foliage application, 320 g/ha, three weeks after application
How it was run: as §1

velvetleaf [6] = experiment: Test Example 4: herbicidal effect by soil treatment (Table 19, symbol M); assay type: in vivo, velvetleaf (Abutilon theophrasti); conditions: amount of applied herbicide 320 g/ha
How it was run: as §2

persian speedwell [7] = experiment: Test Example 4: herbicidal effect by soil treatment (Table 19, symbol R); assay type: in vivo, Persian speedwell (Veronica persica); conditions: amount of applied herbicide 320 g/ha
How it was run: as §2

velvetleaf [8] = experiment: Test Example 5: herbicidal effect by foliage application, plastic box (Table 20, symbol M); assay type: in vivo, velvetleaf (Abutilon theophrasti); conditions: foliage application, 320 g/ha, three weeks after application
How it was run: as §1

lambsquarters [9] = experiment: Test Example 4: herbicidal effect by soil treatment (Table 19, symbol O); assay type: in vivo, lambsquarters (Chenopodium album); conditions: amount of applied herbicide 320 g/ha
How it was run: as §2

oval-leafed pondweed = experiment: Test Example 1: herbicidal activity, application before weed generation under submerged conditions (Table 16, symbol C); assay type: in vivo, oval-leafed pondweed (Monochoria vaginalis); conditions: 320 g/ha applied herbicide
How it was run: as §3

lambsquarters [10] = experiment: Test Example 5: herbicidal effect by foliage application, plastic box (Table 20, symbol O); assay type: in vivo, lambsquarters (Chenopodium album); conditions: foliage application, 320 g/ha, three weeks after application
How it was run: as §1

blackgrass [11] = experiment: Test Example 5: herbicidal effect by foliage application, plastic box (Table 20, symbol J); assay type: in vivo, blackgrass (Alopecurus myosuroides); conditions: foliage application, 320 g/ha, three weeks after application
How it was run: as §1

wild oat [12] = experiment: Test Example 4: herbicidal effect by soil treatment (Table 19, symbol I); assay type: in vivo, wild oat (Avena fatua); conditions: amount of applied herbicide 320 g/ha
How it was run: as §2

southern crabgrass [13] = experiment: Test Example 4: herbicidal effect by soil treatment (Table 19, symbol F); assay type: in vivo, southern crabgrass (Digitaria ciliaris); conditions: amount of applied herbicide 320 g/ha
How it was run: as §2

blackgrass [14] = experiment: Test Example 4: herbicidal effect by soil treatment (Table 19, symbol J); assay type: in vivo, blackgrass (Alopecurus myosuroides); conditions: amount of applied herbicide 320 g/ha
How it was run: as §2

chickweed [15] = experiment: Test Example 5: herbicidal effect by foliage application, plastic box (Table 20, symbol P); assay type: in vivo, common chickweed (Stellaria media); conditions: foliage application, 320 g/ha, three weeks after application
How it was run: as §1

chickweed [16] = experiment: Test Example 4: herbicidal effect by soil treatment (Table 19, symbol P); assay type: in vivo, common chickweed (Stellaria media); conditions: amount of applied herbicide 320 g/ha
How it was run: as §2

Chinese sprangletop = experiment: Test Example 3: herbicidal effect by foliage application, Wagner pot (Table 18, symbol D); assay type: in vivo, chinese sprangletop (Leptochloa chinensis); conditions: 320 g/ha
How it was run: (§4)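 Plants were sown in alluvial soil held under 0.1–0.5 cm standing water and grown 14 days in a greenhouse at 25–30 °C. An emulsifiable formulation, water-diluted to the set dose, was then sprayed onto the foliage, and effects were scored three weeks later using previously defined criteria.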

windgrass [17] = experiment: Test Example 5: herbicidal effect by foliage application, plastic box (Table 20, symbol L); assay type: in vivo, windgrass (Apera spica-venti); conditions: foliage application, 320 g/ha, three weeks after application
How it was run: as §1

green foxtail [18] = experiment: Test Example 5: herbicidal effect by foliage application, plastic box (Table 20, symbol G); assay type: in vivo, green foxtail (Setaria viridis); conditions: foliage application, 320 g/ha, three weeks after application
How it was run: as §1

Italian ryegrass [19] = experiment: Test Example 5: herbicidal effect by foliage application, plastic box (Table 20, symbol K); assay type: in vivo, Italian ryegrass (Lolium multiflorum); conditions: foliage application, 320 g/ha, three weeks after application
How it was run: as §1

late watergrass = experiment: Test Example 1: herbicidal activity, application before weed generation under submerged conditions (Table 16, symbol A); assay type: in vivo, late watergrass (Echinochloa oryzicola); conditions: 320 g/ha applied herbicide
How it was run: as §3

false cleavers [20] = experiment: Test Example 4: herbicidal effect by soil treatment (Table 19, symbol Q); assay type: in vivo, false cleavers (Galium spurium); conditions: amount of applied herbicide 320 g/ha
How it was run: as §2

barnyard grass [21] = experiment: Test Example 5: herbicidal effect by foliage application, plastic box (Table 20, symbol H); assay type: in vivo, barnyard grass (Echinochloa crus-galli); conditions: foliage application, 320 g/ha, three weeks after application
How it was run: as §1

barnyard grass [22] = experiment: Test Example 4: herbicidal effect by soil treatment (Table 19, symbol H); assay type: in vivo, barnyard grass (Echinochloa crus-galli); conditions: amount of applied herbicide 320 g/ha
How it was run: as §2

barnyard grass [23] = experiment: Test Example 3: herbicidal effect by foliage application, Wagner pot (Table 18, symbol H); assay type: in vivo, barnyard grass (Echinochloa crus-galli); conditions: 320 g/ha
How it was run: as §4

green foxtail [24] = experiment: Test Example 4: herbicidal effect by soil treatment (Table 19, symbol G); assay type: in vivo, green foxtail (Setaria viridis); conditions: amount of applied herbicide 320 g/ha
How it was run: as §2

windgrass [25] = experiment: Test Example 4: herbicidal effect by soil treatment (Table 19, symbol L); assay type: in vivo, windgrass (Apera spica-venti); conditions: amount of applied herbicide 320 g/ha
How it was run: as §2

Italian ryegrass [26] = experiment: Test Example 4: herbicidal effect by soil treatment (Table 19, symbol K); assay type: in vivo, Italian ryegrass (Lolium multiflorum); conditions: amount of applied herbicide 320 g/ha
How it was run: as §2

rice flat sedge = experiment: Test Example 3: herbicidal effect by foliage application, Wagner pot (Table 18, symbol E); assay type: in vivo, rice flat sedge (Cyperus iria); conditions: 320 g/ha
How it was run: as §4

redroot pigweed [27] = experiment: Test Example 5: herbicidal effect by foliage application, plastic box (Table 20, symbol N); assay type: in vivo, redroot pigweed (Amaranthus retroflexus); conditions: foliage application, 320 g/ha, three weeks after application
How it was run: as §1

**Q.** Cc1ccc(-c2sc3ccccc3c2-c2c(O)c(C)nn(C)c2=O)cc1C [1-065] was tested. Which “herbicidal effect grade, I: wild oat” value (wild oat [1]) did it give?
**A.** 0 (Herbicidal rate of 5% or less (almost no effect))

**Q.** What about the “herbicidal effect rating, N: redroot pigweed” value (redroot pigweed [2]) of the same compound?
**A.** 0 (Herbicidal rate of 5% or less (almost no effect))

**Q.** What about the “herbicidal effect grade, R: persian speedwell” value (persian speedwell [3]) of the same compound?
**A.** 5 (Herbicidal rate of 90% or more (almost completely withered))

**Q.** What about the “Herbicidal effect on B: Japanese bulrush (grade 0-5)” value (Japanese bulrush) of the same compound?
**A.** 0 (Herbicidal rate of 5% or less (almost no effect))

**Q.** And the “herbicidal effect grade, F: southern crabgrass” value (southern crabgrass [4])?
**A.** 3 (Herbicidal rate of 40% or more and less than 70%)

**Q.** What about the “herbicidal effect grade, Q: false cleavers” value (false cleavers [5]) of the same compound?
**A.** 3 (Herbicidal rate of 40% or more and less than 70%)

**Q.** And the “herbicidal effect rating, M: velvetleaf” value (velvetleaf [6])?
**A.** 0 (Herbicidal rate of 5% or less (almost no effect))

**Q.** What about the “herbicidal effect rating, R: persian speedwell” value (persian speedwell [7]) of the same compound?
**A.** 4 (Herbicidal rate of 70% or more and less than 90%)

**Q.** And the “herbicidal effect grade, M: velvetleaf” value (velvetleaf [8])?
**A.** 5 (Herbicidal rate of 90% or more (almost completely withered))

**Q.** And the “herbicidal effect rating, O: lambsquarters” value (lambsquarters [9])?
**A.** 0 (Herbicidal rate of 5% or less (almost no effect))

**Q.** And the “Herbicidal effect on C: oval-leafed pondweed (grade 0-5)” value (oval-leafed pondweed)?
**A.** 0 (Herbicidal rate of 5% or less (almost no effect))

**Q.** What about the “herbicidal effect grade, O: lambsquarters” value (lambsquarters [10]) of the same compound?
**A.** 3 (Herbicidal rate of 40% or more and less than 70%)

**Q.** And the “herbicidal effect grade, J: blackgrass” value (blackgrass [11])?
**A.** 0 (Herbicidal rate of 5% or less (almost no effect))

**Q.** And the “herbicidal effect rating, I: wild oat” value (wild oat [12])?
**A.** 0 (Herbicidal rate of 5% or less (almost no effect))

**Q.** And the “herbicidal effect rating, F: southern crabgrass” value (southern crabgrass [13])?
**A.** 0 (Herbicidal rate of 5% or less (almost no effect))

**Q.** And the “herbicidal effect rating, J: blackgrass” value (blackgrass [14])?
**A.** 0 (Herbicidal rate of 5% or less (almost no effect))

**Q.** And the “herbicidal effect grade, P: chickweed” value (chickweed [15])?
**A.** 5 (Herbicidal rate of 90% or more (almost completely withered))

**Q.** And the “herbicidal effect rating, P: chickweed” value (chickweed [16])?
**A.** 3 (Herbicidal rate of 40% or more and less than 70%)

**Q.** And the “herbicidal effect on D (Chinese sprangletop), rating 0-5” value (Chinese sprangletop)?
**A.** 3 (Herbicidal rate of 40% or more and less than 70%)

**Q.** What about the “herbicidal effect grade, L: windgrass” value (windgrass [17]) of the same compound?
**A.** 0 (Herbicidal rate of 5% or less (almost no effect))

**Q.** And the “herbicidal effect grade, G: green foxtail” value (green foxtail [18])?
**A.** 3 (Herbicidal rate of 40% or more and less than 70%)

**Q.** And the “herbicidal effect grade, K: Italian ryegrass” value (Italian ryegrass [19])?
**A.** 2 (Herbicidal rate of 20% or more and less than 40%)

**Q.** And the “Herbicidal effect on A: late watergrass (grade 0-5)” value (late watergrass)?
**A.** 3 (Herbicidal rate of 40% or more and less than 70%)

**Q.** And the “herbicidal effect rating, Q: false cleavers” value (false cleavers [20])?
**A.** 0 (Herbicidal rate of 5% or less (almost no effect))

**Q.** And the “herbicidal effect grade, H: barnyard grass” value (barnyard grass [21])?
**A.** 3 (Herbicidal rate of 40% or more and less than 70%)

**Q.** And the “herbicidal effect rating, H: barnyard grass” value (barnyard grass [22])?
**A.** 0 (Herbicidal rate of 5% or less (almost no effect))

**Q.** What about the “herbicidal effect on H (barnyard grass), rating 0-5” value (barnyard grass [23]) of the same compound?
**A.** 3 (Herbicidal rate of 40% or more and less than 70%)

**Q.** What about the “herbicidal effect rating, G: green foxtail” value (green foxtail [24]) of the same compound?
**A.** 0 (Herbicidal rate of 5% or less (almost no effect))

**Q.** What about the “herbicidal effect rating, L: windgrass” value (windgrass [25]) of the same compound?
**A.** 0 (Herbicidal rate of 5% or less (almost no effect))

**Q.** And the “herbicidal effect rating, K: Italian ryegrass” value (Italian ryegrass [26])?
**A.** 0 (Herbicidal rate of 5% or less (almost no effect))

**Q.** And the “herbicidal effect on E (rice flat sedge), rating 0-5” value (rice flat sedge)?
**A.** 5 (Herbicidal rate of 90% or more (almost completely withered))

**Q.** What about the “herbicidal effect grade, N: redroot pigweed” value (redroot pigweed [27]) of the same compound?
**A.** 3 (Herbicidal rate of 40% or more and less than 70%)
